Reference: US9434763B2, “Derivatives of pyridinone as inhibitors for tissue transglutaminase” (ZEDIRA GMBH, priority 2012, dated 2016)

Experiments:
[1] = tested on: Huh 7 (human hepatome-cell line); experiment: Cytotoxicity: metabolic activity, EZ4U-Assay, Huh 7; assay type: cell-based
Procedure: (§1) Huh 7 (human hepatome-cell line) and CaCo2 (human colon carcinoma-cell line) were seeded to 96 well plates in Dulbecco's Modified Eagle's Medium (DMEM)/10% fetal calf serum (FCS) and cultivated. The method is known to the skilled person.
[…] The determination of the proliferation was carried out using the Cell Proliferation ELISA, BrdU (Roche 11 647 229 001): 24 hours after incubation of the cells with the inhibitor BrdU was added. The colorimetric development of the test was made after further 48 hours according to manufacturer's information. The extinction was measured at 450 nm. For determination of the metabolic activity using the EZ4U-Assay (Biomedica B1-5000) the tetrazolium substrate was added to the cells 48 hours after addition of the inhibitor. The capacity for reaction of the cells was measured every hour over a period of 4 hours at 450 nm against a reference filter of 630 nm. DMEM without inhibitor was added as reference in both experiments, as positive control cycloheximide (2.5 μg/ml) and camptothecin (0.2 μg/ml).

[2] = tested on: CaCo2 (human colon carcinoma-cell line); experiment: Cytotoxicity: metabolic activity, EZ4U-Assay, CaCo2; assay type: cell-based
Procedure: as §1
After one hour the inhibitors A63 (ZED1227), A29 (ZED1098) and A61 (ZED1219) were added in the concentrations 0.1 μM to 1 μM. The determination of the proliferation was carried out using the Cell Proliferation ELISA, BrdU (Roche 11 647 229 001): 24 hours after incubation of the cells with the inhibitor BrdU was added. The colorimetric development of the test was made after further 48 hours according to manufacturer's information. The extinction was measured at 450 nm. For determination of the metabolic activity using the EZ4U-Assay (Biomedica B1-5000) the tetrazolium substrate was added to the cells 48 hours after addition of the inhibitor. The capacity for reaction of the cells was measured every hour over a period of 4 hours at 450 nm against a reference filter of 630 nm. DMEM without inhibitor was added as reference in both experiments, as positive control cycloheximide (2.5 μg/ml) and camptothecin (0.2 μg/ml).

[3] = target: T1, TG2 in tissue sections (Mus musculus, UniProt P21981); experiment: Ex vivo testing of inhibitors on small intestine sections of a control mouse; details: pre-incubated with 0.2 mg/ml and 0.02 mg/ml inhibitor
T1 construct: from tissue; host or cells: mouse small intestine cryosections (mucosa)
T1 sequence (P21981 1-686): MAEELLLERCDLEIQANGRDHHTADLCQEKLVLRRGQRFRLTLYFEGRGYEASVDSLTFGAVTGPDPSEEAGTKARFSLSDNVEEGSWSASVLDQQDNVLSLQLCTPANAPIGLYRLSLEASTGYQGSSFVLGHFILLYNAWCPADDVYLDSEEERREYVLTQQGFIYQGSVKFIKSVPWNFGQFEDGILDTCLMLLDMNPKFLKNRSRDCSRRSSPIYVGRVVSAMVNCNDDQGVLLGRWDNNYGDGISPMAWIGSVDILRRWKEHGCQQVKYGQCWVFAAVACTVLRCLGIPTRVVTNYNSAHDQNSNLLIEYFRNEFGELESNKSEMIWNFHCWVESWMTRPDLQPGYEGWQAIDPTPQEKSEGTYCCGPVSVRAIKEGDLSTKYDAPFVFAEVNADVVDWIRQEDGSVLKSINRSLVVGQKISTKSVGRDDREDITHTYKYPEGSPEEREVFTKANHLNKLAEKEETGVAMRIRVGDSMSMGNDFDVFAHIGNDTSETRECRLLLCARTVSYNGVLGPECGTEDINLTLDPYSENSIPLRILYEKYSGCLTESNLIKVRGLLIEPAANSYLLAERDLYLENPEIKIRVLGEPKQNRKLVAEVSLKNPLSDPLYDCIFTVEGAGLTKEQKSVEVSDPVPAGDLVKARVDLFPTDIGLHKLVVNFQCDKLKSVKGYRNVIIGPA
Procedure: After a washing step (1% BSA in PBS buffer), incubation was carried out with 4 μg/ml of the TG2 substrate biotinyl-TVQQEL (Zedira, product number B001) in the presence of 5 mM CaCl2 for 2 h at room temperature. The reaction was stopped with 25 mM EDTA. After one further washing, blocking, and washing step, the primary antibody against human TG2 was added (Zedira, product number A018, 25 μg/ml) and incubated for one hour at room temperature. After four wash steps, streptavidin-FITC (2 μg/ml, streptavidin-fluorescein-isothiocyanate) and Cy3-labeled goat anti-rabbit IgG antibodies (22.5 μg/ml) were added and incubated in the dark at room temperature for 40 min. TG2 was thus visible in the fluorescence microscope as red color (Cy3), whereas biotinyl-TVQQEL incorporated by transglutaminase activity was visualized by green staining (FITC). The superposition of both images led to a yellow color when active transglutaminase was present.
[…] Then the staining protocol as described in example 10 was carried out. In the control sections with 0.0 mg/ml inhibitor yellow staining in the mucosa of the small intestinal was detected, which is due to active TG2.

| SMILES | effect on metabolic activity (EZ4U) [1] | effect on metabolic activity (EZ4U) [2] | TG2 inhibition in sections at the higher concentrations of inhibitor [3] |
| --- | --- | --- | --- |
| COC(=O)/C=C/CC[C@H](NC(C)=O)C(=O)Nc1cccn(CC(=O)NCCC(C)C)c1=O [A29, (S,E)-methyl 6-acetamido-7-(1-(2-(isopentylamino)-2-oxoethyl)-2-oxo-1,2-dihydropyridin-3-ylamino)-7-oxohept-2-enoate] | no effect | no effect |  |
| CC[C@@H](C)[C@H](NC(=O)Cn1cccc(NC(=O)[C@H](CC/C=C/C(=O)OC)NC(=O)c2ccccc2)c1=O)C(=O)O [A61, (2S,3R)-2-(2-(3-((S,E)-2-benzamido-7-methoxy-7-oxohept-5-enamido)-2-oxopyridin-1(2H)-yl)acetamido)-3-methylpentanoic acid] | no effect | no effect | completely inhibited |
| CCC(CC)CNC(=O)Cn1cccc(NC(=O)[C@H](CC/C=C/C(=O)OC)NC(=O)c2cncn2C)c1=O [A63, (S,E)-Methyl 7-(1-(2-(2-ethylbutylamino)-2-oxoethyl)-2-oxo-1,2-dihydropyridin-3-ylamino)-6-(1-methyl-1H-imidazole-5-carboxamido)-7-oxohept-2-enoate] | no effect | no effect | completely inhibited |
